Measurements: PMC10935503 (Acta Pharmaceutica Sinica. B, 2023)

Assays:
Assay type in all cases: cell-based
[1] = tested on: HIV-1 K103N + Y181C (RES056); assay: microbe, parasite or virus in culture; details: for EC50: Human immunodeficiency virus 1, MT4, read-out: EC50 RES056; for RF RES056: resistance fold, EC50 (mutant strain)/EC50 (WT strain); for SI RES056: selectivity index, ratio of CC50/EC50
HIV-1 Y188L = assay: microbe, parasite or virus in culture; details: for EC50: Human immunodeficiency virus 1, MT4, read-out: EC50 Y188L; for RF Y188L: resistance fold, EC50 (mutant strain)/EC50 (WT strain); for SI Y188L: selectivity index, ratio of CC50/EC50
HIV-1 F227L + V106A = assay: microbe, parasite or virus in culture; details: for EC50: Human immunodeficiency virus 1, MT4, read-out: EC50 F227L + V106A; for RF F227L + V106A: resistance fold, EC50 (mutant strain)/EC50 (WT strain); for SI F227L + V106A: selectivity index, ratio of CC50/EC50
HIV-1 L100I = assay: microbe, parasite or virus in culture; details: for EC50: Human immunodeficiency virus 1, MT4, read-out: EC50 L100I; for RF L100I: resistance fold, EC50 (mutant strain)/EC50 (WT strain); for SI L100I: selectivity index, ratio of CC50/EC50
HIV-1 WT strain (IIIB) = assay: Anti-HIV-1 activity in MT-4 cells, MTT method, WT strain IIIB; details: Human immunodeficiency virus 1, IIIB, MT4, read-out: EC50 IIIB
HIV-1 Y181C = assay: microbe, parasite or virus in culture; details: for EC50: Human immunodeficiency virus 1, MT4, read-out: EC50 Y181C; for RF Y181C: resistance fold, EC50 (mutant strain)/EC50 (WT strain); for SI Y181C: selectivity index, ratio of CC50/EC50
HIV-1 E138K = assay: microbe, parasite or virus in culture; details: for EC50: Human immunodeficiency virus 1, MT4, read-out: EC50 E138K; for RF E138K: resistance fold, EC50 (mutant strain)/EC50 (WT strain); for SI E138K: selectivity index, ratio of CC50/EC50
[2] = Cytotoxicity in mock-infected MT-4 cells, MTT method; details: human
HIV-1 K103N = assay: microbe, parasite or virus in culture; details: for EC50: Human immunodeficiency virus 1, MT4, read-out: EC50 K103N; for RF K103N: resistance fold, EC50 (mutant strain)/EC50 (WT strain); for SI K103N: selectivity index, ratio of CC50/EC50

SMILES | EC50 [1] [nM] | RF RES056 [1] | SI RES056 [1] | EC50 (HIV-1 Y188L) [nM] | RF Y188L (HIV-1 Y188L) | SI Y188L (HIV-1 Y188L) | EC50 (HIV-1 F227L + V106A) [nM] | RF F227L + V106A (HIV-1 F227L + V106A) | SI F227L + V106A (HIV-1 F227L + V106A) | EC50 (HIV-1 L100I) [nM] | RF L100I (HIV-1 L100I) | SI L100I (HIV-1 L100I) | EC50 (HIV-1 WT strain (IIIB)) [nM] | EC50 (HIV-1 Y181C) [nM] | RF Y181C (HIV-1 Y181C) | SI Y181C (HIV-1 Y181C) | EC50 (HIV-1 E138K) [nM] | RF E138K (HIV-1 E138K) | SI E138K (HIV-1 E138K) | CC50 at 5 days [2] [nM] | further results
Cc1cc(C#N)cc(C)c1Oc1nc(NC2CCN(Cc3ccc(N)cc3)CC2)nc2c1SCCC2 [23f, 4-((2-((1-(4-Aminobenzyl)piperidin-4-yl)amino)-7,8-dihydro-6H-thiopyrano[3,2-d]pyrimidin-4-yl)oxy)-3,5-dimethylbenzonitrile] | 653 ± 236 | 93.3 | 18 | 26.1 ± 3.53 | 3.7 | 460 | 184 ± 8.33 | 26.3 | 65 | 55.6 ± 2.68 | 7.9 | 216 | 7 ± 1.04 | 14.7 ± 1.17 | 2.1 | 816 | 21.6 ± 0.56 | 3.0 | 556 | 12000 ± 6470 | EC50 (HIV-1 K103N): 8.69 nM; RF K103N (HIV-1 K103N): 1.2; SI K103N (HIV-1 K103N): 1381
Cc1cc(C#N)cc(C)c1Oc1nc(NC2CCN(Cc3ccc(NS(C)(=O)=O)cc3)CC2)nc2c1SCCC2 [23g, N-(4-((4-((4-(4-cyano-2,6-dimethylphenoxy)-7,8-dihydro-6H-thiopyrano[3,2-d]pyrimidin-2-yl)amino)piperidin-1-yl)methyl)phenyl)methanesulfonamide] | 326 ± 185 | 138 | ≥ 12 | 12.7 ± 2.99 | 5.4 | ≥ 305 | 165 ± 40.8 | 69.6 | ≥ 23 | 28 ± 5.38 | 11.8 | ≥ 138 | 2.37 ± 1.98 | ≤ 8.29 | ≤ 3.5 | ≥ 467 | 8.66 ± 0.54 | 3.7 | ≥ 447 | ≥ 3870 | EC50 (HIV-1 K103N): 4.59 ± 0.45 nM; RF K103N (HIV-1 K103N): 1.9; SI K103N (HIV-1 K103N): ≥ 843
Cc1cc(C)c(Oc2nc(NC3CCN(Cc4ccc(S(N)(=O)=O)cc4)CC3)nc3c2SCCC3)c(C)c1 [23i, 4-((4-((4-(Mesityloxy)-7,8-dihydro-6H-thiopyrano[3,2-d]pyrimidin-2-yl)amino)piperidin-1-yl)methyl)benzenesulfonamide] | 442 ± 272 | 81.4 | ≥ 511 | 43 ± 0.26 | 7.9 | ≥ 5256 | 64.7 ± 13.3 | 11.9 | ≥ 3493 | 39.2 ± 7.66 | 7.2 | ≥ 5765 | 5.43 ± 4.4 | 35.7 ± 5.75 | 6.6 | ≥ 6331 | 37.6 ± 7.41 | 6.9 | ≥ 6011 | ≥ 226000 | EC50 (HIV-1 K103N): 6.56 ± 1.07 nM; RF K103N (HIV-1 K103N): 1.2; SI K103N (HIV-1 K103N): ≥ 34,451
Cc1cc(C#N)cc(C)c1Oc1nc(NC2CCN(c3cccc(C#N)c3)CC2)nc2c1SCCC2 [compound 27a, 4-((2-((1-(3-Cyanophenyl)piperidin-4-yl)amino)-7,8-dihydro-6H-thiopyrano[3,2-d]pyrimidin-4-yl)oxy)-3,5-dimethylbenzonitrile] | 836 ± 290 |  |  |  |  |  |  |  |  |  |  |  | 10.2 ± 7.57 |  |  |  |  |  |  | 8390 ± 5220 | 
